Test results reported in patent US8822533B1, “Methods and compositions for repelling and/or killing insects” (The United States of America, as represented by the …, priority 2011, dated 2014).

Tests used:
[1] = tested on: bed bugs (Cimex lectularius); assay: Bed bug mortality on treated filter paper; assay type: in vivo; settings: Cimex lectularius, 24 h
Procedure: Knockdown data and mortality for volatile pyrethroids against bed bugs (Cimex lectularius): Compounds were dissolved in acetone to yield concentrations of 100 μg/cm^2, 10 μg/cm^2, and 1 μg/cm^2 and 47 mm filter paper disks were treated. Acetone-treated filter paper was used as a negative control. Mixed stages (nymphs and adults) of a laboratory colony of the bed bug Cimex lectularius were placed on the treated filter paper in glass Petri dishes and mortality was recorded 24 h later, at which time bed bugs were removed to untreated surfaces. 24 h after this transfer another assessment of mortality was made to see if any dead or moribund bugs had recovered.

[2] = tested on: bed bugs (Cimex lectularius); assay: Bed bug mortality on treated filter paper; assay type: in vivo; settings: 24 h
[3] = tested on: Mosquitoes, either Aedes aegypti (Liverpool) or Anopheles stephensi Liston; assay: K&D module in vitro bioassay: biting protection, knockdown and mortality; assay type: in vivo
Procedure: In vitro bioassays were conducted as described by Klun et. al. (Klun, J. A., et al., J. Med. Entomol., 40: 293-299 (2005)). Each test replicate consisted of 3 treatments: a control (EtOH); a standard (Deet, 4.54 nmol/μl); and an experimental compound (pyrethroid analogs, 4.54 nmol/ul). The 3 treatments were randomly assigned to consecutive cells in 2, 6-cell reservoirs connected in series to a single water-bath pump; thus, 4 replicates could be tested/run. Tests were performed in an Air Science USA hood, with an air movement velocity of approx. 110-120 ft./min., temperature of 25-27° C., and RH of 15-25%. A 6-celled reservoir was connected to and heated by a constant-temperature (38° C.) water circulator (Lauda E100, Wobser GMGH and Co., Konigshofell, Germany).
Prior to each test, the upper surface of each reservoir was coated with a thin layer of high-vacuum silicone grease (Dow Corning Corp., Midland, Mich.), and the cells then filled (approx. 6 ml. capacity) or topped-off with either: (1) expired human red blood cells suspended in citrate-phosphate-dextrose-adenine (CPDA) solution, not more than 1 month past expiration date, and to which 110 mg ATP/35 ml. blood-CPDA had been added on the day of testing; or (2) CPDA+ATP×^−3, usually made up or diluted to 10^−3 ATP on the day of testing. The filled cells were then covered with an Edicol collagen membrane (Devro, Sandy Run, S.C.) strip, and then with a just-treated (110 μl of 4.54 nmol/μl treatment or control solution) organdy cloth (G Street Fabrics, Rockville, Md.) strip. Mosquitoes used in tests were either Aedes aegypti_(Liverpool) or Anopheles stephensi_Liston. K&D modules containing 5 adult females/cell were placed over a Teflon separator atop each reservoir; the sliding floors opened allowing access to the treated organdy cloth and membrane-covered cell; and the number of mosquitoes biting (proboscis inserted through the cloth) and/or observed to be engorged within each cell at the end of a 3-5 min. exposure period was recorded. Mosquitoes were used only once in a test, and then frozen and discarded.
Only tests in which 3 or more females fed in the control cell were analyzed, as lower feeding rates are indicative of substandard feeding readiness of that group of mosquitoes.
[…] Data were collected to record knockdown in 6 minutes, one hour and 24 hours post exposure.

Ae. aegypti mosquitoes = assay: Sleeve bite protection assay on treated uniform fabric, mosquitoes; assay type: in vivo, Aedes aegypti (Orlando, 1952)
Procedure: Biological Evaluation: Bite protection assays were conducted with laboratory-reared 7-12 day old mosquitoes or sand flies. The species used throughout these studies are Aedes aegypti (Orlando, 1952) and Phlebotomus papatasi sand flies (Jerusalem, 1983). Females were pre-selected using either a hand draw box or a mechanical aspirator. An assay was conducted by wearing sewn sleeves made from clothing material. Treated specimens were assayed with untreated controls to correct for the bite resistance afforded by material construction and composition. The untreated control was tested at the beginning of the experiment, followed by successively higher candidate repellent concentrations on sleeves. Sleeves were sewn from a cut out single ply trapezoidal pattern (33.2 cm×21 cm×25.5 cm height) of material. […] Permethrin was 35:65cis: trans, 95.85% technical material. Experimental repellents were received as neat samples with <5% impurities. The treatment occurred by dissolution of repellent in suitable quantity of acetone to saturate the clothing, but minimizing excess solution. Excess solution was quantified and this amount of excess was then used to calculate the estimated amount of repellent applied to the material. […] The photoperiod was 12:12. The mosquito cages were approximately 60000 cm^3 and each contained 175 to 225 female mosquitoes. […] Cages for sand fly work were slightly smaller (15000 cm^3) and constructed of acrylic for filming purposes and with screens on the exterior edges to allow air flow through the system. About 20-40 sand flies were released in cages for each assay. Assays started when the sleeved arm was inserted through the sleeve into the cage. Normally the hand was protected by a glove, but there were situations (i.e. sand fly data presented here) when the ability of a repellent to protect the untreated hand was determined. The assay periods were 15 min for the mosquitoes and 25-30 minutes for sand flies. The insects were allowed to land, probe and possibly bloodfeed during this time. At the conclusion of the experiment, all insects were knocked down or aspirated and the percentage that bloodfed of the total female test population in the cage was recorded. The protect level was calculated by Abbott's formula as a percentage reduction in bites compared to the untreated fabric control sleeve. Specific conditions for bioassays are noted with corresponding data contained in the Tables.

[4] = ACU sleeve, stored one year then tested, concentrations as E1

`CC(C)=C[C@@H]1[C@@H](C(=O)OCc2c(F)c(F)cc(F)c2F)C1(C)C` [TL-I-107] gave a mortality at 1 µg/cm2 [1] of 0%, a mortality at 10 µg/cm2 [1] of 100% and a mortality at 100 µg/cm2 [1] of 100%. The mortality at 5 µg/cm2 [2] was 100%, the “Knockdown 6 min (%)” value ([3]; 2.5 nM\cm^2, K&D module) was 100% and the “Knockdown 24 hours (%)” value ([3]; 2.5 nM\cm^2, K&D module) was 100%. The “Not feeding 3 minutes (%)” value ([3]; 2.5 nM\cm^2, K&D module) was 100%, the “Knockdown 1 hour (%)” value ([3]; 2.5 nmol/cm^2, K&D module) was 100% and the “Knockdown 6 min (%)” value ([3]; 25 nM\cm^2, K&D module) was 100%. For the same compound, the “Knockdown 24 hours (%)” value ([3]; 25 nM\cm^2, K&D module) was 100%, the “Not feeding 3 minutes (%)” value ([3]; 25 nM\cm^2, K&D module) was 100% and the “Knockdown 1 hour (%)” value ([3]; 25 nmol/cm^2, K&D module) was 100%. For the same compound, the mortality at 0.0025 µM ([3]; Aedes aegypti, 24 h) was 100%, the mortality at 0.025 µM ([3]; Aedes aegypti, 48 h) was 100% and the “Blood-fed #” value (Ae. aegypti mosquitoes; ACU (50/50 NYCO) sleeve, glove on hand, 15 min, permethrin 0.118, transfluthrin 0.108, TL-I-107 0.107, TL-I-141 0.109, TL-I-105 0.107, TL-I-73 0.102 mg/cm^2) was 0 #. The “Bite Protection (%)” value (Ae. aegypti mosquitoes; ACU (50/50 NYCO) sleeve, glove on hand, Abbott's formula vs untreated sleeve, concentrations as E1) was 100%, the “Fed (%)” value (Ae. aegypti mosquitoes; ACU (50/50 NYCO) sleeve, glove on hand, concentrations as E1) was 0.0% and the “Bite Protection (%)” value (Ae. aegypti mosquitoes; [4]) was 100%. The “Fed (%)” value (Ae. aegypti mosquitoes; [4]) was 0.0% and the “Blood-fed #” value (Ae. aegypti mosquitoes; ACU sleeve, treated specimens stored in refrigerator for one year then tested, concentrations as E1) was 0 #.
